Measurements from patent US8835429B2, “Pyrimidine compounds, their use as mTOR kinase and Pl3 kinase inhibitors, and their syntheses” (Wyeth LLC, priority 2009, dated 2014).
Each block holds one compound with its values, some of them ahead of it.

What was measured:
PI3K-alpha = PI3K-alpha (Homo sapiens, UniProt P42336); test: PI3K-alpha fluorescence polarization assay; type: biochemical; conditions: 20 μM PIP2, 25 μM ATP; read-out: PI3Kα IC50
Procedure, shortened: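 PIP2 (diC8) and ATP substrate with PI3K in 20 mM HEPES pH 7.5, 2 mM MgCl2, 0.05% CHAPS, 0.01% βME; 1% DMSO final; 30–60 min reaction. Stopped with EDTA plus GST-GRP (70 nM) and TAMRA probe (10 nM); FP (mP) read after 30–90 min, with no-enzyme controls.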

mTOR = mTOR (Homo sapiens, UniProt P42345); test: mTOR enzyme assay (DELFIA, purified FLAG-TOR, His6-S6K substrate); type: biochemical; set-up: FLAG; conditions: 100 μM ATP, 2 hours
LNCap = test: In vitro cell growth assay (MTS), LNCap; type: cell-based; conditions: LNCaP, 72 h, human prostate line, three days after drug treatment
MDA468 = test: In vitro cell growth assay (MTS), MDA468; type: cell-based; conditions: 72 h, human breast line MDA468, three days after drug treatment, read-out: MDA IC50
PI3K-gamma = PI3K-gamma (Homo sapiens, UniProt P48736); test: PI3K-gamma fluorescence polarization assay; type: biochemical; conditions: 20 μM PIP2, 25 μM ATP; read-out: PI3Kγ IC50
Description: The reaction buffer was 20 mM HEPES, pH 7.5, 2 mM MgCl2, 0.05% CHAPS; and 0.01% βME (added fresh). The stop/detection buffer was 100 mM HEPES, pH 7.5, 4 mM EDTA, 0.05% CHAPS; ATP 20 mM in water; PIP2 (diC8, Echelon, Salt Lake City Utah cat #P-4508) 1 mM in water (MW=856.5). The GST-GRP was 1.75 mg/mL or 1.4 mg/mL in 10% glycerol. The red detector (TAMRA) was 2.5 μM. Nunc 384-well black polypropylene fluorescent plates were used for PI3K assays.
The assay is run by placing 5 μL of diluted enzyme per well, then 5 μL of diluted compound (or 9.5 μL enzyme then 0.5 μL compound in DMSO) is added and mixed. Then, 10 μL substrate is added to start the reaction. The samples are incubated 30-60 minutes, then the reaction is stopped by adding 20 μL stop/detector mix. PI3K is diluted with reaction buffer (e.g., 5 μL or 7.5 μL PI3K into 620 μL reaction buffer), and 5 μL of diluted enzyme is used per well. A 5 μL portion of reaction buffer or of drug diluted in buffer (e.g., 4 μL/100 so final DMSO is 1% in reaction) is added to each. Pipetting up and down mixes the samples. Alternatively, the enzyme can be diluted to 1215 μL. In this case 9.8 μL is added per well and 0.2 μL compound is added in DMSO.
To prepare 1 mL of substrate solution, 955 μL reaction buffer, 40 μL PIP2, and 2.5 μL ATP are mixed. 10 μL of substrate is added to each well to start the reaction. […] The stop/detector mix is prepared by mixing 4 μL red detector and 1.6 μL or 2.0 μL GST-GRP with 1 mL stop buffer, which results in 10 nM probe and 70 nM GST-GRP. 20 μL of the stop/detector mix is added to each well to stop the reaction. The plates are read after 30-90 minutes keeping the red probe solutions dark. For the zero time point, stop/detector mix is added to the enzyme just before adding substrate. For an extra control, stop/detector mix is added to buffer (no enzyme) and substrate or to just buffer (no substrate). […] The recommended reaction has 0.06 μL per 20 μL (0.015 μg/20 μL) or 0.01125 μg/15 μL or 0.75 μg/mL.
Plates are read on machines with filters for TAMRA. The units are mP with no enzyme controls reading app 190-220 mP units. Fully active enzyme reduces fluorescence polarization down to 70-100 mP after 30 minutes. An active compound raises the mP values halfway to control or to 120-150 mP units.

Sequence of mTOR (P42345 1360-2549 limits assumed): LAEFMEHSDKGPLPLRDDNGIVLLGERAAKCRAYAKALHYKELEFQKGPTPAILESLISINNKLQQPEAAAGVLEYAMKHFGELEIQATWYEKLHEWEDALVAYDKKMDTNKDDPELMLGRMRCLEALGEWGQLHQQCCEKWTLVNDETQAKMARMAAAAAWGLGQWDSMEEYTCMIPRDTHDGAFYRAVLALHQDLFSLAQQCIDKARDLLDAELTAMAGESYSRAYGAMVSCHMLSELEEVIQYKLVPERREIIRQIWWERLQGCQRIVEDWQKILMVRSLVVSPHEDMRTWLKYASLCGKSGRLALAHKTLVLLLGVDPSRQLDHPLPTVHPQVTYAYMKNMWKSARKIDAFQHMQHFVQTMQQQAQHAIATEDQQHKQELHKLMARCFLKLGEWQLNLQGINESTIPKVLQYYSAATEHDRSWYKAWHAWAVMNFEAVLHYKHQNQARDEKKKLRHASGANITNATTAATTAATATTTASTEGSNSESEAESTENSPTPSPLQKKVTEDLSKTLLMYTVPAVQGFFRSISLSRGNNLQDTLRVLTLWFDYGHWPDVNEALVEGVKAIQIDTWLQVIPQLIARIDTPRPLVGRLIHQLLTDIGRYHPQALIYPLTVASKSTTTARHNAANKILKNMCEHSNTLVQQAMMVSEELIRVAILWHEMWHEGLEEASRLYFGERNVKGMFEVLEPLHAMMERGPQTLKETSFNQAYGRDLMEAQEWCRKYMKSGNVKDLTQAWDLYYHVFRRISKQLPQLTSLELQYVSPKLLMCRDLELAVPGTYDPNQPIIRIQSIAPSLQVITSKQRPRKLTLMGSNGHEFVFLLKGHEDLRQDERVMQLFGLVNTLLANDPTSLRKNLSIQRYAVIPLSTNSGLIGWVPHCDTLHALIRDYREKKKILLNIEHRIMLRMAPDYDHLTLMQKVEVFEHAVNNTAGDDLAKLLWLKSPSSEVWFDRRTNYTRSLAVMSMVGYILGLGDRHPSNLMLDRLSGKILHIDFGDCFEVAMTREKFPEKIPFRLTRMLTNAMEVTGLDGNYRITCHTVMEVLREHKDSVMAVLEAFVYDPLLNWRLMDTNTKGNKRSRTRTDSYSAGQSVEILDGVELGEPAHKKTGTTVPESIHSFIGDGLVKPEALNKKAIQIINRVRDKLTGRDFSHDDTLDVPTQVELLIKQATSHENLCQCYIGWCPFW
Sequence of PI3K-alpha (P42336 whole entry, species assumed): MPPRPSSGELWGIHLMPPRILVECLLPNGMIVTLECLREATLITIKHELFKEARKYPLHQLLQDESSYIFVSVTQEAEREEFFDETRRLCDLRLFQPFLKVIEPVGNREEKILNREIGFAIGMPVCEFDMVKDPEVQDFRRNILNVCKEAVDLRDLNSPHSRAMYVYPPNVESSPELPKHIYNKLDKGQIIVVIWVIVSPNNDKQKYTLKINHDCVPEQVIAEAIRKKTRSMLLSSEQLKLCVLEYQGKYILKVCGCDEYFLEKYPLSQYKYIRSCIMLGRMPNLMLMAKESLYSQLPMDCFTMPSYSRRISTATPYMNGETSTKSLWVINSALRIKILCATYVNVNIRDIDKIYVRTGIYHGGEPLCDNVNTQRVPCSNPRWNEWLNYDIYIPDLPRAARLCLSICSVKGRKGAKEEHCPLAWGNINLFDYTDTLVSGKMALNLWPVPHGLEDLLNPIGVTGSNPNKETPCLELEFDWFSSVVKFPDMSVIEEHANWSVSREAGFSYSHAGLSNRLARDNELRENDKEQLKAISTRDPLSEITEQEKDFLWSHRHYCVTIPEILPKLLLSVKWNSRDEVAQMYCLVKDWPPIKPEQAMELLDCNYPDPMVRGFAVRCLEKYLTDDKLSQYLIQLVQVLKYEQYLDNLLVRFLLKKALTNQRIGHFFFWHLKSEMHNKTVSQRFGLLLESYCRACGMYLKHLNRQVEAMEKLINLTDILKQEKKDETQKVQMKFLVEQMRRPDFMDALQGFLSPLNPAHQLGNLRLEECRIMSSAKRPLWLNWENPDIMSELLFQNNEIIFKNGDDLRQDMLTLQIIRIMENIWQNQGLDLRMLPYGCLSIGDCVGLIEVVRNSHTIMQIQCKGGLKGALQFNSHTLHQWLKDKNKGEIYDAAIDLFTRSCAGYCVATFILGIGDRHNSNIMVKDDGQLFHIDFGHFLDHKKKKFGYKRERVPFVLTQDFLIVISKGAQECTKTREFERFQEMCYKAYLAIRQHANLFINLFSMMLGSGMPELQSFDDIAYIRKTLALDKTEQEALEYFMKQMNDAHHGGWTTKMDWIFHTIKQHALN
Sequence of PI3K-alpha (P27986 whole entry partner, species assumed): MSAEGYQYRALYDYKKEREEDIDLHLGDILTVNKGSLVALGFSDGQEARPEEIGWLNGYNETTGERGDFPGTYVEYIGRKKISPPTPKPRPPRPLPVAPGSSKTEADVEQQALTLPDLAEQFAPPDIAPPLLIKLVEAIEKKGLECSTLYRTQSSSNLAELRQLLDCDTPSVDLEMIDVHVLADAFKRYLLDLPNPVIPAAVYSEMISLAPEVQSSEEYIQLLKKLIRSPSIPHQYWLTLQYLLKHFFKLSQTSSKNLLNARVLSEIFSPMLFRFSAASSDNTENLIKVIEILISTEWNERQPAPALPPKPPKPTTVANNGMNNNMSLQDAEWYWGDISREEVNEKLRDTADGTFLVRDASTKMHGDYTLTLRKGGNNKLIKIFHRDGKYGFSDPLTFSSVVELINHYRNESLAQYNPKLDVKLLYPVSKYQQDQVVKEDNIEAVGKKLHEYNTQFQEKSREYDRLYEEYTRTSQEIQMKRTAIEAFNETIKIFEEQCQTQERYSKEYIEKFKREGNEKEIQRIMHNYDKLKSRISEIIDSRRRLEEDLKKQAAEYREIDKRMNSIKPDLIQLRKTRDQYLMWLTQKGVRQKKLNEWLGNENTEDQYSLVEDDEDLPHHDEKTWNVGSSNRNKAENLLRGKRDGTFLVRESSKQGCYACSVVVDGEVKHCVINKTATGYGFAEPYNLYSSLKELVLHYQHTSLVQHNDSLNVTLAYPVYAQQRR
Sequence of PI3K-gamma (P48736 whole entry, species assumed): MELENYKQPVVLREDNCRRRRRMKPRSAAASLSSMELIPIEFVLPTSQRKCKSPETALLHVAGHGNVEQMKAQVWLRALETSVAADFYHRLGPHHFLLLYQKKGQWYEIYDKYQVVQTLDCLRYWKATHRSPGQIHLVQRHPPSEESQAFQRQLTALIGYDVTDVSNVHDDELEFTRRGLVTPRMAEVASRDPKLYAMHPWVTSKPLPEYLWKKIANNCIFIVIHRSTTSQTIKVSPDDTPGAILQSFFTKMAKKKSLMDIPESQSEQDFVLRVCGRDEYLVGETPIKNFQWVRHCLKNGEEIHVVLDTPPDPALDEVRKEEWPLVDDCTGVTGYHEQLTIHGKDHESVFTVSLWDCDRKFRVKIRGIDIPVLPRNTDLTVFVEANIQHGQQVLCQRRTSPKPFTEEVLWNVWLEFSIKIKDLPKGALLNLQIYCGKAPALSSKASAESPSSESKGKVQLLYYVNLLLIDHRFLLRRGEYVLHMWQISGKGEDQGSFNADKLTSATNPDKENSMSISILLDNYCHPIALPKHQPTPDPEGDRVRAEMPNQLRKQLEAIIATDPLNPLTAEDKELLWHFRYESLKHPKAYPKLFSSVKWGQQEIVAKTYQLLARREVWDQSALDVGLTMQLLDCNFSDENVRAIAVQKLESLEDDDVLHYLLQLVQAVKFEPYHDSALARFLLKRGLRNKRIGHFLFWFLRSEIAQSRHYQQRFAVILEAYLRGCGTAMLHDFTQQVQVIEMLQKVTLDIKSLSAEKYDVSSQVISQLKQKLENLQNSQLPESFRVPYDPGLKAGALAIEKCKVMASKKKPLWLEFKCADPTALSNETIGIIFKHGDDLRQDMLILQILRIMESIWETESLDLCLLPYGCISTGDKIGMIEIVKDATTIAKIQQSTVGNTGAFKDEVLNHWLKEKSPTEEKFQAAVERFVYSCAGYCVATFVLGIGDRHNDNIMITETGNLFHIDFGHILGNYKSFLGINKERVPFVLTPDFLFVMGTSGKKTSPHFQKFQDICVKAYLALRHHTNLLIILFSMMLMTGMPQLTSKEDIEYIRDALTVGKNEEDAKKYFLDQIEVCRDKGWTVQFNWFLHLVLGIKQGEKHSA

Compound: CN1CCN(c2ccc(NC(=O)Nc3ccc(-c4nc(N5C6CCC5COC6)cc(N5C[C@H]6C[C@@H]5CO6)n4)cc3)cc2)CC1 [1-[4-(4-methylpiperazin-1-yl)phenyl]-3-(4-{4-[(1R,4R)-2-oxa-5-azabicyclo[2.2.1]hept-5-yl]-6-(3-oxa-8-azabicyclo[3.2.1]oct-8-yl)pyrimidin-2-yl}phenyl)urea]
- IC50 (PI3K-alpha): 2090 nM
- IC50 (mTOR): 7.55 nM
- IC50 (LNCap): 40 nM
- IC50 (MDA468): 48 nM
- IC50 (PI3K-gamma): 8710 nM

Compound: CC(C)Nc1cc(N2C3CCC2COC3)nc(-c2ccc(NC(=O)Nc3cccnc3)cc2)n1 [1-(4-{4-[(1-methylethyl)amino]-6-(3-oxa-8-azabicyclo[3.2.1]oct-8-yl)pyrimidin-2-yl}phenyl)-3-pyridin-3-ylurea]
- IC50 (PI3K-alpha): 4350 nM
- IC50 (mTOR): 1.1 nM
- IC50 (LNCap): 45 nM
- IC50 (MDA468): 100 nM
- IC50 (PI3K-gamma): ≥ 10000 nM

Compound: O=C(Nc1ccncc1)Nc1ccc(-c2nc(NC3CCOCC3)cc(N3C4CCC3COC4)n2)cc1 [1-{4-[4-(3-oxa-8-azabicyclo[3.2.1]oct-8-yl)-6-(tetrahydro-2H-pyran-4-ylamino)pyrimidin-2-yl]phenyl}-3-pyridin-4-ylurea]
- IC50 (PI3K-alpha): 2010 nM
- IC50 (mTOR): 3.8 nM
- IC50 (LNCap): 40 nM
- IC50 (MDA468): 40 nM
- IC50 (PI3K-gamma): 12000 nM

Compound: C[C@@H]1COCCN1c1cc(N2C3CCC2COC3)nc(-c2ccc(NC(=O)Nc3ccc(N4CCN(C)CC4)cc3)cc2)n1 [1-(4-{4-[(3R)-3-methylmorpholin-4-yl]-6-(3-oxa-8-azabicyclo[3.2.1]oct-8-yl)pyrimidin-2-yl}phenyl)-3-[4-(4-methylpiperazin-1-yl)phenyl]urea]
- IC50 (PI3K-alpha): 864 nM
- IC50 (mTOR): 1.25 nM
- IC50 (LNCap): ≤ 0.8 nM
- IC50 (MDA468): 1 nM
- IC50 (PI3K-gamma): 3500 nM

Compound: CCN(CC)c1cc(N2C3CCC2COC3)nc(-c2ccc(NC(=O)Nc3ccc(N4CCN(C)CC4)cc3)cc2)n1 [1-{4-[4-(diethylamino)-6-(3-oxa-8-azabicyclo[3.2.1]oct-8-yl)pyrimidin-2-yl]phenyl}-3-[4-(4-methylpiperazin-1-yl)phenyl]urea]
- IC50 (PI3K-alpha): 2910 nM
- IC50 (mTOR): 5.85 nM
- IC50 (LNCap): 132 nM
- IC50 (MDA468): 560 nM
- IC50 (PI3K-gamma): 3390 nM

Compound: O=C(Nc1ccc(-c2nc(NC3CCOCC3)cc(N3C4CCC3COC4)n2)cc1)Nc1cccnc1 [1-{4-[4-(3-oxa-8-azabicyclo[3.2.1]oct-8-yl)-6-(tetrahydro-2H-pyran-4-ylamino)pyrimidin-2-yl]phenyl}-3-pyridin-3-ylurea]
- IC50 (PI3K-alpha): 2680 nM
- IC50 (mTOR): 3.3 nM
- IC50 (LNCap): 50 nM
- IC50 (MDA468): 160 nM
- IC50 (PI3K-gamma): ≥ 10000 nM

Compound: CN1CCN(c2ccc(NC(=O)Nc3ccc(-c4nc(C5CCOCC5)cc(N5C6CCC5COC6)n4)cc3)cc2)CC1 [1-[4-(4-methylpiperazin-1-yl)phenyl]-3-{4-[4-(3-oxa-8-azabicyclo[3.2.1]oct-8-yl)-6-(tetrahydro-2H-pyran-4-yl)pyrimidin-2-yl]phenyl}urea]
- IC50 (PI3K-alpha): 1060 nM
- IC50 (mTOR): 0.855 nM
- IC50 (LNCap): ≤ 0.8 nM
- IC50 (MDA468): 4 nM
- IC50 (PI3K-gamma): 4730 nM

Compound: O=C(Nc1ccncc1)Nc1ccc(-c2nc(N3C4CCC3COC4)cc(N3C[C@H]4C[C@@H]3CO4)n2)cc1 [1-(4-{4-[(1R,4R)-2-oxa-5-azabicyclo[2.2.1]hept-5-yl]-6-(3-oxa-8-azabicyclo[3.2.1]oct-8-yl)pyrimidin-2-yl}phenyl)-3-pyridin-4-ylurea]
- IC50 (PI3K-alpha): 1890 nM
- IC50 (mTOR): 2.25 nM
- IC50 (LNCap): 90 nM
- IC50 (MDA468): 110 nM
- IC50 (PI3K-gamma): 7430 nM

Compound: C[C@@H]1CN(c2cc(N3C4CCC3COC4)nc(-c3ccc(NC(=O)Nc4ccncc4)cc3)n2)C[C@H](C)O1 [1-(4-{4-[(2R,6S)-2,6-dimethylmorpholin-4-yl]-6-(3-oxa-8-azabicyclo[3.2.1]oct-8-yl)pyrimidin-2-yl}phenyl)-3-pyridin-4-ylurea]
- IC50 (PI3K-alpha): 1340 nM
- IC50 (mTOR): 2.6 nM
- IC50 (LNCap): 50 nM
- IC50 (MDA468): 280 nM
- IC50 (PI3K-gamma): 5370 nM

Compound: O=C(Nc1ccncc1)Nc1ccc(-c2nc(N3C4CCC3COC4)cc(N3C[C@@H]4C[C@H]3CO4)n2)cc1 [1-(4-{4-[(1S,4S)-2-oxa-5-azabicyclo[2.2.1]hept-5-yl]-6-(3-oxa-8-azabicyclo[3.2.1]oct-8-yl)pyrimidin-2-yl}phenyl)-3-pyridin-4-ylurea]
- IC50 (PI3K-alpha): 2810 nM
- IC50 (mTOR): 3.05 nM
- IC50 (LNCap): 30 nM
- IC50 (MDA468): 75 nM
- IC50 (PI3K-gamma): ≥ 10000 nM

Compound: CC(C)Nc1cc(N2C3COCC2COC3)nc(-c2ccc(NC(=O)Nc3ccc(CN4CCN(C)CC4)cc3)cc2)n1 [1-{4-[4-(3,7-dioxa-9-azabicyclo[3.3.1]non-9-yl)-6-(isopropylamino)pyrimidin-2-yl]phenyl}-3-{4-[(4-methylpiperazin-1-yl)methyl]phenyl}urea]
- IC50 (PI3K-alpha): 3160 nM
- IC50 (mTOR): 17.5 nM
- IC50 (LNCap): 600 nM
- IC50 (MDA468): 1000 nM
- IC50 (PI3K-gamma): 6870 nM

Compound: C[C@@H]1COCCN1c1cc(N2C3CCC2COC3)nc(-c2ccc(NC(=O)Nc3ccc(OCCN(C)C)cc3)cc2)n1 [1-{4-[2-(dimethylamino)ethoxy]phenyl}-3-(4-{4-[(3R)-3-methylmorpholin-4-yl]-6-(3-oxa-8-azabicyclo[3.2.1]oct-8-yl)pyrimidin-2-yl}phenyl)urea]
- IC50 (PI3K-alpha): 853 nM
- IC50 (mTOR): 1.55 nM
- IC50 (LNCap): 4 nM
- IC50 (MDA468): 13 nM
- IC50 (PI3K-gamma): 6470 nM

Compound: C[C@@H]1CN(c2cc(N3C4CCC3COC4)nc(-c3ccc(NC(=O)Nc4ccc(C(=O)N5CCN(C)CC5)cc4)cc3)n2)C[C@H](C)O1 [1-(4-{4-[(2R,6S)-2,6-dimethylmorpholin-4-yl]-6-(3-oxa-8-azabicyclo[3.2.1]oct-8-yl)pyrimidin-2-yl}phenyl)-3-{4-[(4-methylpiperazin-1-yl)carbonyl]phenyl}urea]
- IC50 (PI3K-alpha): 180 nM
- IC50 (mTOR): 3.55 nM
- IC50 (LNCap): ≤ 0.8 nM
- IC50 (MDA468): 0.8 nM
- IC50 (PI3K-gamma): 1030 nM

Compound: CCN(CC)c1cc(N2C3CCC2COC3)nc(-c2ccc(NC(=O)Nc3ccncc3)cc2)n1 [1-{4-[4-(diethylamino)-6-(3-oxa-8-azabicyclo[3.2.1]oct-8-yl)pyrimidin-2-yl]phenyl}-3-pyridin-4-ylurea]
- IC50 (PI3K-alpha): 2410 nM
- IC50 (mTOR): 4.55 nM
- IC50 (PI3K-gamma): 1990 nM

- IC50 (PI3K-alpha): 140 nM
- IC50 (mTOR): 0.785 nM
- IC50 (LNCap): 51 nM
Compound: CC(C)Nc1cc(N2CC3CCC(C2)O3)nc(-c2ccc(NC(=O)Nc3ccncc3)cc2)n1 [1-(4-{4-[(1-methylethyl)amino]-6-(8-oxa-3-azabicyclo[3.2.1]oct-3-yl)pyrimidin-2-yl}phenyl)-3-pyridin-4-ylurea]
- IC50 (MDA468): 310 nM

- IC50 (PI3K-alpha): 440 nM
- IC50 (mTOR): 11 nM
- IC50 (LNCap): 50 nM
Compound: CN1CCN(c2ccc(NC(=O)Nc3ccc(-c4nc(N5CC6CCC(C5)O6)cc(C(F)(F)F)n4)cc3)cc2)CC1 [1-[4-(4-methylpiperazin-1-yl)phenyl]-3-{4-[4-(8-oxa-3-azabicyclo[3.2.1]oct-3-yl)-6-(trifluoromethyl)pyrimidin-2-yl]phenyl}urea]
- IC50 (MDA468): 190 nM

Compound: CC(C)Nc1cc(N2C3CCC2COC3)nc(-c2ccc(NC(=O)Nc3ccc(N4CCN(C)CC4)cc3)cc2)n1 [1-{4-[4-(isopropylamino)-6-(3-oxa-8-azabicyclo[3.2.1]oct-8-yl)pyrimidin-2-yl]phenyl}-3-[4-(4-methylpiperazin-1-yl)phenyl]urea]
- IC50 (PI3K-alpha): 2000 nM
- IC50 (mTOR): 2.7 nM
- IC50 (LNCap): 19 nM
- IC50 (MDA468): 34 nM

Compound: CC(C)Nc1cc(N2C3CCC2COC3)nc(-c2ccc(NC(=O)Nc3ccc(OCCN(C)C)cc3)cc2)n1 [1-{4-[2-(dimethylamino)ethoxy]phenyl}-3-{4-[4-(isopropylamino)-6-(3-oxa-8-azabicyclo[3.2.1]oct-8-yl)pyrimidin-2-yl]phenyl}urea]
- IC50 (PI3K-alpha): 2380 nM
- IC50 (mTOR): 3.6 nM
- IC50 (LNCap): 50 nM
- IC50 (MDA468): 710 nM
